Data reported in patent US9868757B2, “5-β, 14-β-androstane derivatives useful for the treatment of proteinuria, glomerulosclerosis and renal failure” (SIGMA-TAU INDUSTRIE FARMACEUTICHE RIUNITE S.p.A., priority 2009, dated 2018).
Several values for one entry are separate records, joined by “and”; a condition that tells them apart may be missing. Equal entries are not always repeated.

Key:
[1] = test system: rats chronically infused with ouabain (OS rats); experiment: Nephrin quantification from renal cortex microsomes of OS rats by Western blotting; format: in vivo, rat
Experimental: (§1) To test the activity of the compound of the invention for the prevention of proteinuria and loss of renal glomerular proteins, rats chronically infused with ouabain (OS rats) or saline (Control rats) were utilized.
(§2) Two groups of 2-month-old OS rats (n=8 each) were orally treated by gavage with vehicle (Methocel 0.5%) or Rostafuroxin (100 μg/kg) for 8 weeks. One group of saline infused rats was used as control. After this period, systolic blood pressure and urinary protein excretion was measured in the three groups. The animals of the three groups were then sacrificed for nephrin quantification from renal cortex microsomes by Western blotting.
(§3) Three week-old male Sprague-Dawley rats (Harlan, Ind.), weighing 100-110 g, were subcutaneously implanted with osmotic mini-pumps, releasing either 15 μg/kg/day of ouabain (OS rats, n=16) for 14 weeks or sterile saline (CS rats, n=8) (Ferrari P. et al. J. Pharmacol Exp. Ther. 1998; 285: 83-94). […] Systolic blood pressure (SBP) and heart rate (HR) were measured weekly in conscious rats by tail-cuff plethysmography (BP recorder, U. Basile, Italy).
(§4) Urinary parameters were measured in conscious OS and control rats at the 12th week of treatment. […] After centrifugation (4500 rpm for 20 min; Varifuge 3.2 RS, Haereus Instruments, AHSI, Milan, Italy), rat urines were analyzed for the urinary volume (ml), quantified by weighing the urinary reservoir on a precision Mettler balance; urinary pH (pHM83, Radiometer, Copenhagen) and total urinary protein excretion (mg/24 h), measured with a standard total protein Kit (Sentinel Diagnostics, Milan, Italy). The animals of the three groups were then sacrificed, renal cortical microsomes were prepared from each rat and nephrin, the key protein of the slit diaphragm membrane, was quantified by Western blotting. […] Nephrin quantification is expressed as optical density, arbitrary units.

[2] = test system: rats chronically infused with ouabain (OS rats); experiment: Systolic blood pressure by tail-cuff plethysmography in ouabain-infused (OS) rats; format: in vivo, rat
Experimental: as §1, §2
Three week-old male Sprague-Dawley rats (Harlan, Ind.), weighing 100-110 g, were subcutaneously implanted with osmotic mini-pumps, releasing either 15 μg/kg/day of ouabain (OS rats, n=16) for 14 weeks or sterile saline (CS rats, n=8) (Ferrari P. et al. J. Pharmacol Exp. Ther. 1998; 285: 83-94). At the 6th week of ouabain infusion, OS rats were randomly assigned to two groups (n=8 each): the first (OS treated) received Rostafuroxin orally at 100 μg/kg/day, suspended in 0.5% w/v Methocel, and the second group (controls) only vehicle. Systolic blood pressure (SBP) and heart rate (HR) were measured weekly in conscious rats by tail-cuff plethysmography (BP recorder, U. Basile, Italy).

[3] = test system: Podocytes from NB rats; experiment: Podocyte protein quantification by Western blotting in cultured podocytes from NB rats; format: cell-based, rat
Text: To test the activity of the compound of the invention for the prevention of loss of podocyte proteins, congenic NB rats carrying the beta adducin mutation (Tripodi G. et at Effect of Addl gene transfer on blood pressure in reciprocal congenic strains of Milan rats. BBRC 2004; 324: 562-568) were used. Said NB rats are non-hypertensive rats and are available at Prassis Research Institute, Sigma-tau, Italy.
NB rats of 7 to 10 days of age were used for podocyte isolation and culture. Podocytes from NB rats were incubated for 5 days without (NB control, n=4) and with Rostafuroxin at 10^−9M (NB n=5). Podocyte proteins were quantified at the end of the 5 days of incubation by Western blotting. The quantification by Western blot was replicated two to three times for each podocyte marker. Tables IA and IB show the final number of podocyte samples analyzed for each condition, as mean values of the replicates (NB control, n=4; NB+Rostafuroxin, n=5). The densitometric analysis was quantified as optical density, in arbitrary units.
Glomeruli were isolated from NB kidneys by sieving and further manually purification. Glomeruli were then seeded in culture flasks (Corning, Sigma-Aldrich, Milan, Italy), pre-coated with collagen type IV (Sigma-Aldrich) at 37° C. in 5% CO2 atmosphere. On days 4 to 5, podocyte growth started and, by day 8, glomeruli were detached using trypsin-EDTA. […] Podocyte protein quantification (10 μg protein/lane) was performed by Western blotting technique by using specific antibodies against nephrin, podocin, ZO-1, adducin, synaptopodin and actin.

[4] = test system: rats chronically infused with ouabain (OS rats); experiment: Total urinary protein excretion in ouabain-infused (OS) rats; format: in vivo, rat
Experimental: as §1, §2, §3, §4

[5] = OS rats orally treated for 8 weeks with Rostafuroxin 100 μg/kg/day, FIG. 6
[6] = NB + Rostafuroxin 10^-9M vs NB controls
[7] = NB podocytes, 5 days with Rostafuroxin 10^-9M, individual samples/replicates
[8] = NB podocytes, 5 days with Rostafuroxin 10^-9M, mean ± sem

C[C@]12CC[C@H](O)C[C@H]1CC[C@@H]1[C@@H]2CC[C@]2(C)[C@@](O)(c3ccoc3)CC[C@]12O [Rostafuroxin]
Nephrin expression from renal cortex (in words) [1, 5]: increased
Nephrin optical density ([1]; OS rats, 100 μg/kg os Rostafuroxin for 8 weeks, renal cortex microsomes, individual rats): 51.4 arbitrary units and 50.8 arbitrary units and 76.1 arbitrary units and 57.4 arbitrary units and 48.8 arbitrary units and 53.8 arbitrary units and 64.7 arbitrary units and 54.8 arbitrary units
Nephrin optical density, mean ± sem ([1]; OS rats, 100 μg/kg os Rostafuroxin for 8 weeks, renal cortex microsomes, n = 8): 57.3 ± 3.1, n = 8 arbitrary units
systolic blood pressure (SBP) (in words) [2, 5]: significantly reduced
Systolic blood Pressure ([2]; OS rats, 100 μg/kg os Rostafuroxin for 8 weeks, individual rats): 155 mmHg (3×) and 145 mmHg (2×) and 150 mmHg (2×) and 135 mmHg
Systolic blood Pressure, mean ± sem ([2]; OS rats, 100 μg/kg os Rostafuroxin for 8 weeks, n = 8): 148.8 ± 2.5, n = 8 mmHg
Actin, % vs. Ctrl. [3, 6]: ns
Nephrin, % vs. Ctrl. [3, 6]: +34%
Podocin, % vs. Ctrl. [3, 6]: +60%
Synaptopodin, % vs. Ctrl. [3, 6]: +143%
ZO-1, % vs. Ctrl. [3, 6]: +86%
α-Adducin, % vs. Ctrl. [3, 6]: +95%
amounts of Nephrin, ZO-1, Podocin, α-Adducin and Synaptopodin (in words) ([3]; NB podocytes cultured 5 days with 10^-9M Rostafuroxin, FIG. 5): increased
Synaptopodin, optical density ([3]; NB podocytes, 5 days with Rostafuroxin 10^-9M, individual samples): 2.7 arbitrary units and 2.51 arbitrary units and 4.29 arbitrary units and 1.43 arbitrary units and 2.56 arbitrary units
Actin, optical density [3, 7]: 130.5 arbitrary units and 115 arbitrary units and 87.5 arbitrary units and 140.4 arbitrary units and 111 arbitrary units and 98 arbitrary units and 98.2 arbitrary units and 81.2 arbitrary units and 86.2 arbitrary units and 101.2 arbitrary units and 101 arbitrary units and 144.2 arbitrary units and 87.7 arbitrary units and 108 arbitrary units and 103 arbitrary units and 91.6 arbitrary units
Nephrin optical density [3, 7]: 24.53 arbitrary units and 27.06 arbitrary units
Podocin, optical density [3, 7]: 23.4 arbitrary units and 49.06 arbitrary units and 13.3 arbitrary units and 19.07 arbitrary units and 16.81 arbitrary units and 18.63 arbitrary units and 21.42 arbitrary units and 18.78 arbitrary units and 23.84 arbitrary units and 36.51 arbitrary units and 21.23 arbitrary units and 23.65 arbitrary units and 27.62 arbitrary units
ZO-1, optical density [3, 7]: 6.38 arbitrary units and 7.5 arbitrary units and 8.73 arbitrary units and 13.33 arbitrary units and 15.79 arbitrary units and 11.67 arbitrary units and 16.05 arbitrary units and 19.98 arbitrary units and 12.78 arbitrary units and 19.06 arbitrary units and 20.13 arbitrary units and 17.3 arbitrary units and 17.8 arbitrary units
α-Adducin, optical density [3, 7]: 22.23 arbitrary units and 6.06 arbitrary units and 5.70 arbitrary units and 6.77 arbitrary units and 8.06 arbitrary units and 7.53 arbitrary units and 9.33 arbitrary units and 7.07 arbitrary units
Nephrin, optical density, mean ([3]; NB podocytes, 5 days with Rostafuroxin 10^-9M, mean): 25.8 arbitrary units
Actin, optical density, mean ± sem [3, 8]: 105.3 ± 4.75 arbitrary units
Podocin, optical density, mean ± sem [3, 8]: 24.13 ± 2.6 arbitrary units
Synaptopodin, optical density, mean ± sem [3, 8]: 2.70 ± 0.45 arbitrary units
ZO-1, optical density, mean ± sem [3, 8]: 14.36 ± 1.3 arbitrary units
α-Adducin, optical density, mean ± sem [3, 8]: 9.09 ± 1.9 arbitrary units
urinary protein excretion (in words) [4, 5]: significantly reduced
Proteinuria ([4]; OS rats, 100 μg/kg os Rostafuroxin, 24-hours urine, individual rats): 55.34 mg/24 h and 29.02 mg/24 h and 39.7 mg/24 h and 40.68 mg/24 h and 20.85 mg/24 h and 48.88 mg/24 h and 53.07 mg/24 h and 20.14 mg/24 h
Proteinuria, mean ± sem ([4]; OS rats, 100 μg/kg os Rostafuroxin, 24-hours urine, n = 8): 38.5 ± 4.9, n = 8 mg/24 h
